Holding throughout (format): cell-based
For assay [1], the system named is Pseudomonas aeruginosa CIP 5933. The assay can be described thus: MIC determination, microdilution method (CLSI M07-A8). The following applies: CIP5933; Pseudomonas aeruginosa CIP 5933; 18 hours incubation; read-out: MIC. The gist of the method:
(§1)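 Bacteria at 5 x 10^5 CFU/mL final are exposed to two-fold serial compound concentrations (0.25-64 mg/L) in Mueller Hinton broth and incubated at 37°C for 18 h. The fastidious H. influenzae receives 10% sheep blood and a 5% CO2 atmosphere. Complete visual inhibition defines the MIC.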
On the technique in general: Broth dilution looks for growth in wells or tubes with falling amounts of substance.

The subject of assay [2] is Enterobacter cloacae ATCC13047. Described as above. The following applies: Enterobacter cloacae ATCC13047; 18 hours incubation; read-out: MIC. The gist of the method: as §1
In assay [3] the test system is Staphylococcus aureus ATCC 29213. Described as above. The settings on record: ATCC29213; Staphylococcus aureus ATCC 29213; 5 x 10^5 CFU/mL; 18 hours incubation; read-out: MIC. In a few lines:
as §1

The test system of assay [4] is Escherichia coli ATCC 25922. The assay is described as above. The following applies: ATCC25922; Escherichia coli ATCC 25922; 18 hours incubation; read-out: MIC. The gist of the method: as §1
The subject of assay [5] is Klebsiella pneumoniae ATCC 35657. Described as above. The settings on record: ATCC35657; Klebsiella pneumoniae ATCC 35657; 18 hours incubation; read-out: MIC. The gist of the method: as §1
In assay [6] the test system is Serratia marcescens CIP 103551. The assay is described as above. The settings on record: CIP103551; Serratia marcescens CIP 103551; 18 hours incubation; read-out: MIC. The gist of the method:
as §1

The test system of assay [7] is Staphylococcus epidermidis ATCC 12228. The description is as above. The following applies: ATCC12228; Staphylococcus epidermidis ATCC 12228; 5 x 10^5 CFU/mL; 18 hours incubation; read-out: MIC. In a few lines: as §1
In assay [8] the test system is Acinetobacter baumanii ATCC 19606. The description is as above. The following applies: Acinetobacter baumannii, ATCC19606; Acinetobacter baumanii ATCC 19606; 18 hours incubation; read-out: MIC. In a few lines: as §1
In assay [9] the test system is Staphylococcus aureus MRSA 252 CNR HT 2006 0436. The assay is described as follows: Determination of the minimum bactericidal concentration (MBC), macro-method. The settings on record: 18 hours incubation, initial bacterial load 9500000. As to the method: (§2) The MBC against two different strains of Staphylococcus aureus, one susceptible to methicillin (MSSA 476 CNR HT 2006 0437) and one resistant to methicillin (MRSA 252 CNR HT 2006 0436) obtained from Centre National de Reference des Staphylocoques (Lyon, France) were determined using a macro-method. Sterile tubes were filled with a primary bacterial inoculum prepared in Mueller Hinton broth as above (10^6 CFU/ml of final inoculum) and pyrrolic compounds were added at twofold serial concentrations (0.5-128 mg/L of final concentrations for 3h and 3i and 0.0625-128mg/L of final concentration for 3n). After 18 hours incubation of cultures, ten-fold serial dilutions of the cultures with no visible bacterial growth and of the first tube showing visible bacterial growth were prepared. Then 100µl of each dilution were inoculated to Mueller Hinton agar media for 24-48 hours. CFU counts were then determined and the MBC corresponded to the minimal pyrrolic compound concentration for which 99.9% of more bacterial cells were killed after 18 hours of incubation.
(§3) However, this reduction was only 1-2 log CFU/ml, and thus MBC could not be determined (tables VI and VII). Table VI: MBC against Staphylococcus aureus MRSA 252 CNR HT 2006 0436

In assay [10] the test system is Staphylococcus aureus MSSA 476 CNR HT 2006 0437. The assay is described as above. The following applies: 18 hours incubation, initial bacterial load 7,70E+05. As to the method:
as §2, §3

SMILES strings stand for the structures. In brackets after ≈: the same amount, converted by molar mass.

Consider 8 compounds from patent EP2812315B1, “PYRROLIC DERIVATIVES, PROCESSES FOR PREPARING THE SAME AND THEIR USES AS A DRUG” (Universite Joseph Fourier, priority 2012, dated 2013).

In general, MIC refers to the least concentration at which growth counts as inhibited.

For `CC(=O)c1c(C)[nH]c(C(c2[nH]c(C)c(C(C)=O)c2C)c2csc3ccccc23)c1C` [3i], the MIC was > 128 µg/mL in assay [1]; > 128 µg/mL in [2]; 0.5 µg/mL (≈ 1.19 µM) in assay [3]; > 128 µg/mL in assay [4]; > 128 µg/mL in assay [5]; > 128 µg/mL in assay [6]. Moreover, the MIC in assay [7] and in [8] was > 128 µg/mL each time. For the same compound, the “CFU counts (bacterial load)” value in [9] (concentration 0,5 mg/L) is listed as 4,70E+07 CFU/ml; in assay [9] (concentration 1 mg/L) it was 5,20E+05 CFU/ml; in assay [9] (concentration 2 mg/L), 2,40E+05 CFU/ml; in assay [9] (concentration 4 mg/L) it was 5,60E+05 CFU/ml; in assay [9] (concentration 8 mg/L), 2,80E+05 CFU/ml; in assay [9] (concentration 16 mg/L) it was 2,80E+05 CFU/ml. Besides, the “CFU counts (bacterial load)” value is on record as 5,00E+05 CFU/ml in [9] (concentration 32 mg/L); 4,80E+05 CFU/ml in [9] (concentration 64 mg/L); 1,00E+06 CFU/ml in assay [9] (concentration 128 mg/L); 1,46E+08 CFU/ml in [10] (concentration 0,5 mg/L); 6,00E+07 CFU/ml in assay [10] (concentration 1 mg/L); 3,55E+06 CFU/ml in assay [10] (concentration 2 mg/L). Also, the “CFU counts (bacterial load)” value is 2,72E+05 CFU/ml in assay [10] (concentration 4 mg/L); 3,01E+05 CFU/ml in [10] (concentration 8 mg/L); 3,51E+05 CFU/ml in assay [10] (concentration 16 mg/L); 3,41E+05 CFU/ml in assay [10] (concentration 32 mg/L); 3,21 E+05 CFU/ml in assay [10] (concentration 64 mg/L); 1,47E+06 CFU/ml in assay [10] (concentration 128 mg/L).

Consider `CC(=O)c1c(C)[nH]c(C(c2[nH]c(C)c(C(C)=O)c2C)c2csc3ccc(Br)cc23)c1C` [3n], for which the “CFU counts (bacterial load)” value was 2,90E+05 CFU/ml in assay [9] (concentration 0,5 mg/L); 2,80E+05 CFU/ml in assay [9] (concentration 0,25 mg/L); 3,00E+05 CFU/ml in assay [9] (concentration 1 mg/L); 4,20E+05 CFU/ml in [9] (concentration 2 mg/L); 4,20E+05 CFU/ml in assay [9] (concentration 4 mg/L); 3,40E+05 CFU/ml in assay [9] (concentration 8 mg/L). Besides, the “CFU counts (bacterial load)” value in assay [9] (concentration 16 mg/L) was 3,80E+05 CFU/ml; in [9] (concentration 0,125 mg/L), 1,00E+06 CFU/ml; in assay [9] (concentration 0,0625 mg/L), 2,90E+07 CFU/ml; in assay [10] (concentration 0,5 mg/L), 2,78E+05 CFU/ml; in assay [10] (concentration 0,25 mg/L) it was 2,10E+06 CFU/ml; in assay [10] (concentration 1 mg/L) it was 1,76E+05 CFU/ml. Also, the “CFU counts (bacterial load)” value in assay [10] (concentration 2 mg/L) is 2,70E+05 CFU/ml; in [10] (concentration 4 mg/L), 2,71E+05 CFU/ml; in [10] (concentration 16 mg/L), 4,41E+05 CFU/ml; in assay [10] (concentration 32 mg/L), 4,47E+05 CFU/ml; in assay [10] (concentration 64 mg/L) it was 4,50E+05 CFU/ml; in assay [10] (concentration 0,125 mg/L), 8,00E+07 CFU/ml. Moreover, the “CFU counts (bacterial load)” value is recorded as 3,50E+05 CFU/ml in assay [10] (concentration 128 mg/L) and 2,15E+08 CFU/ml in assay [10] (concentration 0,0625 mg/L).

`CC(=O)c1c(C)[nH]c(C(c2[nH]c(C)c(C(C)=O)c2C)c2cccc3ccccc23)c1C` [3h]: the MIC in [1] is > 128 µg/mL; in assay [2] it was > 128 µg/mL; in [3] it was 1 µg/mL (≈ 2.42 µM); in [4], > 128 µg/mL; in [5], > 128 µg/mL; in assay [6], > 128 µg/mL. The MIC in [7] and in assay [8] was > 128 µg/mL throughout. Moreover, the “CFU counts (bacterial load)” value in assay [9] (concentration 0,5 mg/L) is recorded as 2,10E+08 CFU/ml; in assay [9] (concentration 1 mg/L), 7,50E+07 CFU/ml; in [9] (concentration 2 mg/L) it was 5,60E+05 CFU/ml; in assay [9] (concentration 4 mg/L), 5,50E+05 CFU/ml; in assay [9] (concentration 8 mg/L), 2,40E+05 CFU/ml; in assay [9] (concentration 16 mg/L) it was 3,20E+05 CFU/ml. Further, the “CFU counts (bacterial load)” value was 4,20E+05 CFU/ml in assay [9] (concentration 32 mg/L); 5,59E+05 CFU/ml in [9] (concentration 64 mg/L); 6,28E+05 CFU/ml in assay [9] (concentration 128 mg/L); 1,63E+08 CFU/ml in [10] (concentration 2 mg/L); 3,20E+05 CFU/ml in assay [10] (concentration 4 mg/L); 3,34E+05 CFU/ml in [10] (concentration 8 mg/L). Moreover, the “CFU counts (bacterial load)” value in [10] (concentration 16 mg/L) was 3,20E+05 CFU/ml; in [10] (concentration 32 mg/L) it was 3,70E+05 CFU/ml; in assay [10] (concentration 64 mg/L), 3,90E+05 CFU/ml; in assay [10] (concentration 128 mg/L), 4,30E+05 CFU/ml.

Consider `CC(=O)c1c(C)[nH]c(C(c2ccc(F)cc2)c2[nH]c(C)c(C(C)=O)c2C)c1C` [3g], for which the MIC in assay [1] is > 32 µg/mL; in assay [2], > 32 µg/mL; in [3], 1 µg/mL (≈ 2.63 µM); in assay [4], > 32 µg/mL; in assay [5], > 32 µg/mL; in [6], > 32 µg/mL. For the same compound, the figures for the MIC in assay [7] and in assay [8] were > 128 µg/mL and > 32 µg/mL, respectively.

As to `COC(=O)c1cccc(C(c2[nH]c(C)c(C(C)=O)c2C)c2[nH]c(C)c(C(C)=O)c2C)c1` [3j, Methyl-3-[bis(4-acetyl-3,5-dimethyl-1H-pyrrol-2-yl)methyl]benzoate], the MIC was > 32 µg/mL in [1]; > 32 µg/mL in [2]; 2 µg/mL (≈ 4.76 µM) in assay [3]; > 32 µg/mL in [4]; > 32 µg/mL in assay [5]; > 32 µg/mL in assay [6]. Moreover, the MIC in assay [7] was > 128 µg/mL; in assay [8] it was > 32 µg/mL.

On to `CC(=O)c1c(C)[nH]c(C(c2cc3ccccc3o2)c2[nH]c(C)c(C(C)=O)c2C)c1C` [3e], for which the MIC in assay [1] is > 128 µg/mL; in [2], > 128 µg/mL; in assay [3] it was 2 µg/mL (≈ 4.97 µM); in [4], > 128 µg/mL; in [5], > 128 µg/mL; in [6], > 128 µg/mL. Moreover, the MIC in [7] and in assay [8] was > 128 µg/mL throughout.

`CC(=O)c1c(C)[nH]c(C(c2cc3ccccc3s2)c2[nH]c(C)c(C(C)=O)c2C)c1C` [3f]: the MIC is > 128 µg/mL in [1]; > 128 µg/mL in [2]; 2 µg/mL (≈ 4.78 µM) in [3]; > 128 µg/mL in assay [4]; > 128 µg/mL in assay [5]; > 128 µg/mL in assay [6]. The MIC in [7] and in assay [8] was > 128 µg/mL each time.

As for `CC(=O)c1c(C)[nH]c(C(c2ccc(Cl)cc2)c2[nH]c(C)c(C(C)=O)c2C)c1C` [3c], the MIC in [1] is > 128 µg/mL; in assay [2] it was > 128 µg/mL; in assay [3], 2 µg/mL (≈ 5.04 µM); in assay [4], > 128 µg/mL; in assay [5] it was > 128 µg/mL; in assay [6], > 128 µg/mL. For the same compound, the MIC in [7] and in [8] was > 128 µg/mL in each case.
